Drawing on patent publication US20090176786A1, “Benzoylurea Compounds and Use Thereof” (priority 2005, published 2009), this text covers pest or weed control, dead pest rate and control rate for five compounds.

What all share (type): in vivo
For assay [1], the system named is Plutella xylostella. Kind of assay: Test Example 1: spray on cabbage, dead pest rate of Plutella xylostella larvae. To be noted: Plutella xylostella, 120 h; 500 ppm spray solution, 20 ml/cup on cabbage; 5 second-instar larvae; after 5 days. The method, then:
Ten parts of the present compound (1), (2), (5) to (19), (21) to (34), (36) to (61), (63), (64), (68) to (71), (74), (76) to (78), (82) to (83), (89), (93), (94), (97), (99), (102) to (110), (111), (115), (116) (117) to (120) or (123) to (134); 35 parts of white carbon containing 50 parts of polyoxyethylene alkyl ether sulfate ammonium salt; and 55 parts of water were mixed, and finely ground by a wet grinding method to obtain a 10% flowable agent. The obtained flowable agent was diluted with water so that the active ingredient concentration became to 500 ppm to prepare a spray solution for test.
Cabbages were planted in polyethylene cups, and grown until the third true leaf or the fourth true leaf was developed. The spray solution for test prepared above was sprayed at a rate of 20 ml/cup on the cabbages.
After the pesticidal solution sprayed onto the cabbages was dried, 5 second-instar larvae of Plutella xylostella were put on the cabbages. After 5 days, the number of dead Plutella xylostella was examined, and a dead pest rate was calculated by the following equation:
(§1) Dead pest rate(%)=(the number of dead pests/the number of tested pests)×100

The test system of a further assay is Spondoptela litura. As to the kind of experiment: Test Example 3: treated artificial diet (Insecta LF), dead pest rate of Spondoptela litura larvae. The conditions noted are these: 144 h, 2 mL on Insecta LF diet, 5 fourth-instar larvae, after 6 days.
Source text: Ten parts of the present compound (1) to (5), (7) to (13), (18) to (33), (35) to (49), (52) to (56), (58) to (61), (71), (73) to (77), (79), (80), (82), (83), (93), (94), (95), (96), (97), (100) to (109), (111), (112), (115), (117), (119), (121), or (123) to (133), 35 parts of white carbon containing 50 parts of polyoxyethylene alkyl ether sulfate ammonium salt, and 55 parts of water were mixed, and finely ground by a wet grinding method to obtain a preparation. The obtained preparation was diluted with water so that the active ingredient concentration became to 500 ppm to prepare a pesticidal solution for test. On the bottom of a polyethylene cup having a diameter of 5.5 cm, a filter paper having a diameter of 5.5 cm was placed, on which Insecta LF (Nippon Agriculture Industries, Co., Ltd.) sliced in a thickness of 6 mm and further cut half was laid, and to which 2 mL of the above-described pesticidal solution for test was added. After air-dried, 5 fourth-instar larvae of Spondoptela litura were released in the cup, and the cup was capped. After 6 days, the number of dead pests was counted, and the dead pest rate was calculated by the following equation:
as §1

Assay [2] relates to Plutella xylostella. As to the kind of experiment: Test Example 7: cabbage root immersion, Plutella xylostella, against comparative compound D. To be noted: 25 ppm; root immersion 5 days; 10 second-instar larvae; after 5 days at 24° C. The method, then: (§2) In 0.25 mL of a mixed solution of Tween-20 and acetone (mixture volume ratio: Tween-20:acetone=1:19), 2.5 mg of the present compound (94) or comparative compound D was dissolved. The solution was diluted with ion-exchanged water so that the active ingredient concentration became to the predetermined concentration (25 ppm) to prepare a pesticidal solution for test of the test compound. The root part of cabbages in the fourth leaf period was washed with tap water to remove soils, and then immersed in the pesticidal solution for test. After 5 days from immersion of the root part, the root part was removed, and the leaves and stems were put in a ice cream cup (volume; 180 mL). In the cup 10 second-instar larvae of Plutella xylostella were released, and the cup was stored at 24° C. After 5 days, the number of dead pests was countered, and the dead pest rate was calculated by the following equation:
as §1

Assay [3] deals with Plutella xylostella. As to the kind of experiment: Test Example 2: cabbage root immersion (systemic), dead pest rate of Plutella xylostella larvae. To be noted: Plutella xylostella, 120 h; test concentration 25 ppm; root immersion 5 days; 10 second-instar larvae; after 5 days at 24° C. The method, then:
In 0.25 mL of a mixture solution of Sorgen TW-20 (manufactured by Daiichi Industries Pharmaceuticals, Co., Ltd.) and acetone (mixture volume ratio; Sorgen TW-20:acetone=1:19), 2.5 mg of the present compound (1), (2), (3), (4), (7), (10), (11), (12), (16), (18), (19), (20), (21), (22), (25), (30), (36), (37), (41), (42), (52), (54), (56), (57), (60), (62), (105) or (109) was dissolved. The solution was diluted with ion-exchanged water so that the active ingredient concentration became to a predetermined concentration to prepare a pesticidal solution for test of the test compound. The root part of cabbages in the fourth leaf period were washed with tap water to remove soils, and then immersed in the pesticidal solution for test. After 5 days from immersion of the root part, the root part was removed, and the leaves and stems were put in a cup (volume; 180 mL). In the cup 10 second-instar larvae of Plutella xylostella were released, and the cup was stored at 24° C. After 5 days, the number of dead pests was counted, and the dead pest rate was calculated by the following equation:
as §1
The test concentrations of the other present compounds were 25 ppm.

Another assay concerns Coptotermes formosanus. As to the kind of experiment: Test Example 8: filter paper bait test, control rate of Coptotermes formosanus. To be noted: filter paper bait treated with 1 mL of 10 mg/mL acetone solution; 20 ergates; 6 weeks in a dark place. The method, then:
A filter paper having a diameter of 33 mm (No. 1026 manufactured by Toyo Filter Paper, Co., Ltd.) was treated with acetone solution (1 mL) of 10 mg/mL of the present compounds (1) or (12) using a pipette, and dried at room temperature. Hereinafter, the resulting filter paper is referred to as a filter paper bait. 4% agarose was poured into a plastic petri dish having a diameter of 9 cm to make the thickness about 5 mm, and solidified by leaving at rest at room temperature. One circular hole having a diameter of 35 mm (hereinafter, referred to as a well) was made in the solidified agarose. One filter paper bait was put into the well. Then, after 20 ergates of Coptotermes formosanus were released in the above petri dish, the petri dish was capped, and sealed with a parafilm. After storing in a dark place for 6 weeks, the petri dish was opened. The control rate was calculated by observing the life and death of the Coptotermes formosanus in the petri dish.

For assay [4], the system named is Plutella xylostella. As to the kind of experiment: Test Example 5: cabbage root immersion, Plutella xylostella, against comparative compounds A and B. To be noted: 25 ppm; root immersion 5 days; 10 second-instar larvae; after 5 days at 24° C. The method, then: as §2, with “(1), (4), (10), (82),” for “(94) or”, “A or B” for “D”, “a” for “a ice cream”
as §1

Consider `CN(C(=O)NC(=O)c1c(F)cccc1F)c1ccc(SC(F)(F)C(F)F)cc1` [(94)], for which the pest or weed control at 500 ppm with Plutella xylostella [1] and in the assay with Spondoptela litura was 100% each time. Moreover, the dead pest rate with Plutella xylostella [2] was found to be 100%.

On to `CN(C(=O)c1c(F)cccc1F)C(=O)N(C)c1ccc(SC(F)(F)F)cc1F` [(10)], for which, in the assay with Plutella xylostella [3], the pest or weed control (usually the degree to which the test organism was suppressed or injured, in per cent) at 25 ppm worked out at 100%. The control rate in the assay on Coptotermes formosanus is listed as 65%.

For the compound `O=C(NC(=O)c1c(F)cccc1F)Nc1ccc(SC(F)(F)C(F)F)cc1` [comparative compound D, reference compound], the dead pest rate in the assay with Plutella xylostella [2] is recorded as 20%.

On to `CN(C(=O)c1c(F)cccc1F)C(=O)N(C)c1ccc(SC(F)(F)C(F)F)cc1F` [(12)], for which the pest or weed control at 25 ppm in the assay on Plutella xylostella [3] was 100%. Besides, the control rate with Coptotermes formosanus is recorded as 60%.

Compound `O=C(NC(=O)c1c(F)cccc1F)Nc1ccc(SC(F)(F)F)cc1F` [comparative compound A] had a dead pest rate with Plutella xylostella [4] of 5%.
